EC30 data for 20 molecules are collected here from US10758534B2 (Vertex Pharmaceuticals Incorporated, priority 2014, dated 2020).

T1 sequence (P13569 with tags, fused parts or gaps DEL508-508): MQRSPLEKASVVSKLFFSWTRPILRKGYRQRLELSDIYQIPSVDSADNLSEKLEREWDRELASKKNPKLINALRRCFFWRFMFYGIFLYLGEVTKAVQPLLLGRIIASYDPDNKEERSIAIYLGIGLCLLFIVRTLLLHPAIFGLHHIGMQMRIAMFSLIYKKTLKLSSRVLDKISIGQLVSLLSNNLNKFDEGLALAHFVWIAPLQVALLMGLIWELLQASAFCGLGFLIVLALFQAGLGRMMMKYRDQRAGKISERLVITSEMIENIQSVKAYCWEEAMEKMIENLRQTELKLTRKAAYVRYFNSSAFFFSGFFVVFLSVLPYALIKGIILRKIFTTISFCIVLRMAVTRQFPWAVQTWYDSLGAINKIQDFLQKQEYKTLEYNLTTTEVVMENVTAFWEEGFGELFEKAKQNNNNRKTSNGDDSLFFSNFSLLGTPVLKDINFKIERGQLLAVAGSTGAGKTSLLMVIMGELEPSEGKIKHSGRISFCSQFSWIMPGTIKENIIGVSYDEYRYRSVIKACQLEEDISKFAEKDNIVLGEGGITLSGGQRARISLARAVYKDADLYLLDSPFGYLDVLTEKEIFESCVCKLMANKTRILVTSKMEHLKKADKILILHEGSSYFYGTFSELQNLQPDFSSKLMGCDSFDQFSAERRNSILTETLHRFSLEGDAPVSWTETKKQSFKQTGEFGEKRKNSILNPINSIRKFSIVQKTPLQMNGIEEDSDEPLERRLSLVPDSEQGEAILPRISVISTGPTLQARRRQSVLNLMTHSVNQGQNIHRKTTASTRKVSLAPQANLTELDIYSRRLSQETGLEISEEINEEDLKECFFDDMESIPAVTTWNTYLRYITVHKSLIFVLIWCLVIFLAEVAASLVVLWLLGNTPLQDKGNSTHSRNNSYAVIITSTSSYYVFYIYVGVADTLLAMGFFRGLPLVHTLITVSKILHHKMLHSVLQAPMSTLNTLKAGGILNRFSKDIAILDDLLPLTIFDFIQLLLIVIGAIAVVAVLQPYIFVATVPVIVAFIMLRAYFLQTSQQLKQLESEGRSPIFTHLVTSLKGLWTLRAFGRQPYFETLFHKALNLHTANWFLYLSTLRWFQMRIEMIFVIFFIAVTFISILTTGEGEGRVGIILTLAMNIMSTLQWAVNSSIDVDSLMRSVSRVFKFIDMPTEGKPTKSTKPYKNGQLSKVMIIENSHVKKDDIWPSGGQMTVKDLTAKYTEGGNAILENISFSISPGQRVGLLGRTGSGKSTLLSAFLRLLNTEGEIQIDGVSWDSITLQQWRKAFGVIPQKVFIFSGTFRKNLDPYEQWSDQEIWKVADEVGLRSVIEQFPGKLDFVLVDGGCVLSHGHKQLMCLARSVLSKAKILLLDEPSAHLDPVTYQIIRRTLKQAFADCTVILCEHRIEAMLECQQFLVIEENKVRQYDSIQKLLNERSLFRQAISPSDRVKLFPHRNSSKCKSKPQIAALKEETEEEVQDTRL

The experiment has as its target T1, F508del (Homo sapiens, UniProt P13569, DEL508-508).
T1 construct: expressed in transfected cells
Put plainly: Protocol 1: membrane potential optical assay (FLIPR III, voltage sensing dye), identification of potentiator compounds. It counts as cell-based. The following applies: Table 3, compounds of Table 1. The method in brief:
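Mouse NIH 3T3 fibroblasts stably expressing F508del, temperature-corrected at 27 °C for 24 h, pretreated with compound, then loaded with voltage-sensing redistribution dye. Forskolin was added in a single step with a chloride gradient (chloride-free gluconate bath; Bath Solution #1 HEPES pH 7.4). Membrane-potential fluorescence read on FLIPR III.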
Turning to `CCCc1ccc2c(c1)cc(C(=O)NS(=O)(=O)c1cccc(N)n1)n2Cc1c(C)cc(C)cc1C` [Compound 1158, N-[(6-amino-2-pyridyl)sulfonyl]-5-propyl-1-[(2,4,6-trimethylphenyl)methyl]indole-2-carboxamide], the EC30 result is “+++ (“+++” means <3 uM)”.

Consider `CC(C)COc1ccn(-c2ccc(C(=O)NS(=O)(=O)c3ccc[nH]c3=O)c(N3C[C@@H](C)CC3(C)C)n2)n1` [Compound 1896, 6-(3-isobutoxypyrazol-1-yl)-N-[(2-oxo-1H-pyridin-3-yl)sulfonyl]-2-[(4S)-2,2,4-trimethylpyrrolidin-1-yl]pyridine-3-carboxamide], for which the EC30 entry is recorded as “+++ (“+++” means <3 uM)”.

Take `Cc1cc(C)c(Oc2nc(-c3cccnc3OC(C)C)ccc2C(=O)NS(=O)(=O)c2cccc(N)n2)c(C)c1` [Compound 909, N-[(6-amino-2-pyridyl)sulfonyl]-6-(2-isopropoxy-3-pyridyl)-2-(2,4,6-trimethylphenoxy)pyridine-3-carboxamide]: the EC30 result is listed as “+++ (“+++” means <3 uM)”.

As to `Cc1cccc(-c2ccc(C(=O)NS(=O)(=O)c3cccnc3N)c(N3C[C@@H](C)CC3(C)C)n2)c1` [Compound 1829, N-[(2-amino-3-pyridyl)sulfonyl]-6-(m-tolyl)-2-[(4S)-2,2,4-trimethylpyrrolidin-1-yl]pyridine-3-carboxamide], the EC30 entry is given as “+++ (“+++” means <3 uM)”.

Consider `Cc1cc(C)c(Oc2nc(-c3cnn(CC(C)C)c3)ccc2C(=O)NS(=O)(=O)c2cccc(N)n2)c(C)c1` [Compound 1177, N-[(6-amino-2-pyridyl)sulfonyl]-6-(1-isobutylpyrazol-4-yl)-2-(2,4,6-trimethylphenoxy)pyridine-3-carboxamide], for which the EC30 entry was “++ (“++” means between 3 uM and 10 uM)”.

On to `CCC(C)Oc1ccn(-c2ccc(C(=O)NS(=O)(=O)c3cccnc3N)c(N3C[C@@H](C)CC3(C)C)n2)n1` (stereo partly drawn) [Compound 1970, N-[(2-amino-3-pyridyl)sulfonyl]-6-(3-sec-butoxypyrazol-1-yl)-2-[(4S)-2,2,4-trimethylpyrrolidin-1-yl]pyridine-3-carboxamide], for which the EC30 result is “+++ (“+++” means <3 uM)”.

Turning to `CCc1cnc2c(c1)cc(C(=O)NS(=O)(=O)c1cccc(N)n1)n2Cc1c(C)cc(C)cc1C` [Compound 816, N-[(6-amino-2-pyridyl)sulfonyl]-5-ethyl-1-[(2,4,6-trimethylphenyl)methyl]pyrrolo[2,3-b]pyridine-2-carboxamide], the EC30 entry is “++ (“++” means between 3 uM and 10 uM)”.

Turning to `CC(C)COc1cc(F)cc(-c2ccc(C(=O)NS(=O)(=O)c3cccc(N)n3)c(OC3CCC3C3CC3)n2)c1` (centres unmarked) [Compound 1530, N-[(6-amino-2-pyridyl)sulfonyl]-2-(2-cyclopropylcyclobutoxy)-6-(3-fluoro-5-isobutoxy-phenyl)pyridine-3-carboxamide], the EC30 entry is “+++ (“+++” means <3 uM)”.

As to `CC(C)COc1cc(F)cc(-c2ccc(C(=O)NS(=O)(=O)c3ccn[nH]3)c(N3CCC(C)(C)CC3)n2)c1` [Compound 1110, 2-(4,4-dimethyl-1-piperidyl)-6-(3-fluoro-5-isobutoxy-phenyl)-N-(1H-pyrazol-5-ylsulfonyl)pyridine-3-carboxamide], the EC30 result was “+++ (“+++” means <3 uM)”.

Consider `CC1CN(c2ncccc2C(=O)NS(=O)(=O)c2cccc(Oc3cccc4c3CCCC4)n2)C(C)(C)C1` (centres unmarked) [Compound 1955, N-[(6-tetralin-5-yloxy-2-pyridyl)sulfonyl]-2-(2,2,4-trimethylpyrrolidin-1-yl)pyridine-3-carboxamide], for which the EC30 entry is recorded as “+++ (“+++” means <3 uM)”.

Turning to `CC(C)Oc1ccc(-c2ccc(C(=O)NS(=O)(=O)c3cccc(N)n3)c(N3CCCC(OCC4CC4)C3)n2)cn1` (centres unmarked) [Compound 858, N-[(6-amino-2-pyridyl)sulfonyl]-2-[3-(cyclopropylmethoxy)-1-piperidyl]-6-(6-isopropoxy-3-pyridyl)pyridine-3-carboxamide], the EC30 entry was “++ (“++” means between 3 uM and 10 uM)”.

As to `CC(C)COc1cc(F)cc(-c2ccc(C(=O)NS(=O)(=O)c3cccc(N)n3)c(N3CC[C@@H](C)C3)n2)c1` [Compound 1051, N-[(6-amino-2-pyridyl)sulfonyl]-6-(3-fluoro-5-isobutoxy-phenyl)-2-[(3R)-3-methylpyrrolidin-1-yl]pyridine-3-carboxamide], the EC30 result is “+++ (“+++” means <3 uM)”.

For `CC(C)COc1cc(F)cc(-c2ccc(C(=O)NS(=O)(=O)c3cccc(N)n3)c(OCCCc3ccccc3)n2)c1` [Compound 1694, N-[(6-amino-2-pyridyl)sulfonyl]-6-(3-fluoro-5-isobutoxy-phenyl)-2-(3-phenylpropoxy)pyridine-3-carboxamide], the EC30 result is recorded as “+++ (“+++” means <3 uM)”.

Take `CC(C)COc1cc(F)cc(-c2ccc(C(=O)NS(=O)(=O)c3cccc(N)n3)c(OCCCCc3cccnc3)n2)c1` [Compound 1690, N-[(6-amino-2-pyridyl)sulfonyl]-6-(3-fluoro-5-isobutoxy-phenyl)-2-[4-(3-pyridyl)butoxy]pyridine-3-carboxamide]: the EC30 entry is “+++ (“+++” means <3 uM)”.

With `CC(C)Oc1ccc(-c2ccc(C(=O)NS(=O)(=O)c3cccc(N)n3)c(N3CCC(C(C)(C)C)C3)n2)cn1` (centres unmarked) [Compound 1206, N-[(6-amino-2-pyridyl)sulfonyl]-2-(3-tert-butylpyrrolidin-1-yl)-6-(6-isopropoxy-3-pyridyl)pyridine-3-carboxamide], the EC30 result was “++ (“++” means between 3 uM and 10 uM)”.

In the case of `CCN(CC)c1cccc(-c2ccc(C(=O)NS(=O)(=O)c3cccnc3N)c(N3C[C@@H](C)CC3(C)C)n2)n1` [Compound 1845, N-[(2-amino-3-pyridyl)sulfonyl]-6-[6-(diethylamino)-2-pyridyl]-2-[(4S)-2,2,4-trimethylpyrrolidin-1-yl]pyridine-3-carboxamide], the EC30 entry is “+++ (“+++” means <3 uM)”.

Take `CCC1CCN(c2nc(-c3cc(F)cc(OCC(C)C)c3)ccc2C(=O)NS(=O)(=O)c2ccn[nH]2)CC1` [Compound 1030, 2-(4-ethyl-1-piperidyl)-6-(3-fluoro-5-isobutoxy-phenyl)-N-(1H-pyrazol-5-ylsulfonyl)pyridine-3-carboxamide]: the EC30 entry is on record as “+++ (“+++” means <3 uM)”.

Take `C[C@@H]1CN(c2ncccc2C(=O)NS(=O)(=O)c2cccc(N)n2)C(C)(C)C1` [Compound 946, N-[(6-amino-2-pyridyl)sulfonyl]-2-[(4S)-2,2,4-trimethylpyrrolidin-1-yl]pyridine-3-carboxamide]: the EC30 result is “++ (“++” means between 3 uM and 10 uM)”.

On to `C[C@@H]1CN(c2nc(-c3ccc(F)c(F)c3)ccc2C(=O)NS(=O)(=O)c2cccnc2N)C(C)(C)C1` [Compound 1854, N-[(2-amino-3-pyridyl)sulfonyl]-6-(3,4-difluorophenyl)-2-[(4S)-2,2,4-trimethylpyrrolidin-1-yl]pyridine-3-carboxamide], for which the EC30 result is on record as “+++ (“+++” means <3 uM)”.

For `CCC1CC=C(c2ccc(C(=O)NS(=O)(=O)c3cccc(N)n3)c(Oc3c(C)cc(C)cc3C)n2)CC1` (centres unmarked) [Compound 1370, N-[(6-amino-2-pyridyl)sulfonyl]-6-(4-ethylcyclohexen-1-yl)-2-(2,4,6-trimethylphenoxy)pyridine-3-carboxamide], the EC30 result is recorded as “+++ (“+++” means <3 uM)”.
